From ChEMBL document CHEMBL3045977, “Antidiabetic and antioxidant activity of hydroxycinnamic acids from Calamintha Officinalis Moench” (2012) come the findings set out here.

Format in all cases: functional
The test system of test [1] is Rattus norvegicus. Description: Antidiabetic activity in alloxan-induced diabetic Rattus norvegicus albino Wistar (rat) model assessed as reduction in HDL level at 10 mg/kg, po administered for 14 days measured on day 1 (reference value: 40.1 +/- 2.11 mg/dl).
For test [2], the system named is Rattus norvegicus. Description: Antidiabetic activity in alloxan-induced diabetic Rattus norvegicus albino Wistar (rat) model assessed as change in body weight at 10 mg/kg, po administered for 14 days measured on day 14 (reference value: 190.6 +/-1.78 g).
Test [3] relates to Rattus norvegicus. Description: Antidiabetic activity in alloxan-induced diabetic Rattus norvegicus albino Wistar (rat) model assessed as change in body weight at 10 mg/kg, po administered for 14 days measured on day 1 (reference value: 205.4 +/-2.68 g).
Test [4] has as its system Rattus norvegicus. Description: Antidiabetic activity in alloxan-induced diabetic Rattus norvegicus albino Wistar (rat) model assessed as reduction in VLDL level at 10 mg/kg, po administered for 14 days measured on day 14 (reference value: 29.9 +/- 0.83 mg/dl).
The subject of test [5] is Rattus norvegicus. Description: Antidiabetic activity in alloxan-induced diabetic Rattus norvegicus albino Wistar (rat) model assessed as reduction in LDL level at 10 mg/kg, po administered for 14 days measured on day 1 (reference value: 52.4 +/- 2.32 mg/dl).
In test [6] the test system is Rattus norvegicus. The test can be described thus: Antidiabetic activity in alloxan-induced diabetic Rattus norvegicus albino Wistar (rat) model assessed as reduction in total cholesterol level at 10 mg/kg, po administered for 14 days measured on day 1 (reference value: 98.6 +/- 0.51 mg/dl).
Test [7] has as its system Rattus norvegicus. The test can be described thus: Antidiabetic activity in alloxan-induced diabetic Rattus norvegicus albino Wistar (rat) model assessed as reduction in LDL level at 10 mg/kg, po administered for 14 days measured on day 14 (reference value: 68.2 +/- 2.10 mg/dl).
The subject of test [8] is Rattus norvegicus. Description: Antidiabetic activity in alloxan-induced diabetic Rattus norvegicus albino Wistar (rat) model assessed as reduction in triglyceride level at 10 mg/kg, po administered for 14 days measured on day 14 (reference value: 210.8 +/- 1.25 mg/dl).
For test [9], the system named is Rattus norvegicus. The test can be described thus: Antidiabetic activity in alloxan-induced diabetic Rattus norvegicus albino Wistar (rat) model assessed as reduction in triglyceride level at 10 mg/kg, po administered for 14 days measured on day 1 (reference value: 158.9 +/- 1.23 mg/dl).
Test [10] has as its system Rattus norvegicus. The test can be described thus: Antidiabetic activity in alloxan-induced diabetic Rattus norvegicus albino Wistar (rat) model assessed as reduction in blood glucose level at 10 mg/kg, po administered for 14 days measured on day 1 (reference value: 242.2 +/- 0.71 mg/dl).
Test [11] has as its system Rattus norvegicus. Description: Antidiabetic activity in alloxan-induced diabetic Rattus norvegicus albino Wistar (rat) model assessed as TBRAS level per gram of liver tissue at 10 mg/kg, po administered for 14 days measured after 14 days (reference value: 0.72 +/-0.12 uM/g).
Test [12] concerns Rattus norvegicus. The test can be described thus: Antidiabetic activity in alloxan-induced diabetic Rattus norvegicus albino Wistar (rat) model assessed as reduction in blood glucose level at 10 mg/kg, po administered for 14 days measured on day 14 (reference value: 248.6 +/- 1.20 mg/dl).
Test [13] concerns Rattus norvegicus. The test can be described thus: Antidiabetic activity in alloxan-induced diabetic Rattus norvegicus albino Wistar (rat) model assessed as reduction in HDL level at 10 mg/kg, po administered for 14 days measured on day 14 (reference value: 36.4 +/- 1.05 mg/dl).
In test [14] the test system is Rattus norvegicus. Description: Antidiabetic activity in alloxan-induced diabetic Rattus norvegicus albino Wistar (rat) model assessed as reduction in total cholesterol level at 10 mg/kg, po administered for 14 days measured on day 14 (reference value: 131.2 +/- 0.48 mg/dl).
Test [15] concerns Rattus norvegicus. The test can be described thus: Antidiabetic activity in alloxan-induced diabetic Rattus norvegicus albino Wistar (rat) model assessed as reduction in VLDL level at 10 mg/kg, po administered for 14 days measured on day 1 (reference value: 14.4 +/- 1.04 mg/dl).

Structures are written as SMILES.

In the case of `O=C(O)/C=C/c1ccc(O)c(O)c1` [CAFFEIC ACID], the Activity in the test with Rattus norvegicus [1] came to 38.2 mg/dL; in the test on Rattus norvegicus [2] it was 246 g; with Rattus norvegicus [3] it was 209.3 g; in the test with Rattus norvegicus [4], 20.9 mg/dL; in the test with Rattus norvegicus [5], 53.7 mg/dL; in the test on Rattus norvegicus [6] it was 101.2 mg/dL. For the same compound, the Activity amounted to 41 mg/dL in the test with Rattus norvegicus [7]; 103.2 mg/dL in the test on Rattus norvegicus [8]; 160.4 mg/dL with Rattus norvegicus [9]; 239 mg/dL with Rattus norvegicus [10]; 0.56 µM in the test on Rattus norvegicus [11]; 105.4 mg/dL with Rattus norvegicus [12]. The Activity was found to be 41.4 mg/dL in the test on Rattus norvegicus [13], 60.6 mg/dL with Rattus norvegicus [14] and 15 mg/dL in the test with Rattus norvegicus [15].

Take `COc1ccc(Cl)cc1C(=O)NCCc1ccc(S(=O)(=O)NC(=O)NC2CCCCC2)cc1` [GLYBURIDE]: the Activity in the test with Rattus norvegicus [1] amounted to 39.7 mg/dL; with Rattus norvegicus [2], 250.5 g; in the test on Rattus norvegicus [3] it was 207.6 g; in the test with Rattus norvegicus [4], 20.1 mg/dL; in the test on Rattus norvegicus [5], 50 mg/dL; in the test on Rattus norvegicus [6], 98.1 mg/dL. Moreover, the Activity with Rattus norvegicus [7] stood at 36.4 mg/dL; in the test with Rattus norvegicus [8], 102.5 mg/dL; with Rattus norvegicus [9] it was 161.6 mg/dL; with Rattus norvegicus [10] it was 240 mg/dL; with Rattus norvegicus [11], 0.45 µM; in the test with Rattus norvegicus [12], 115.1 mg/dL. The Activity with Rattus norvegicus [13] came out at 45.7 mg/dL; with Rattus norvegicus [14], 58.6 mg/dL; with Rattus norvegicus [15] it was 14 mg/dL.

`O=C(/C=C/c1ccc(O)c(O)c1)O[C@H](Cc1ccc(O)c(O)c1)C(=O)O` [ROSMARINIC ACID]: the Activity in the test on Rattus norvegicus [1] is 41.2 mg/dL; in the test with Rattus norvegicus [2], 249.5 g; in the test with Rattus norvegicus [3], 206.8 g; in the test on Rattus norvegicus [4] it was 21.7 mg/dL; with Rattus norvegicus [5], 51.3 mg/dL; with Rattus norvegicus [6], 100.1 mg/dL. Moreover, the Activity in the test on Rattus norvegicus [7] amounted to 42.3 mg/dL; with Rattus norvegicus [8], 100.5 mg/dL; in the test with Rattus norvegicus [9], 157.6 mg/dL; with Rattus norvegicus [10], 244.1 mg/dL; in the test on Rattus norvegicus [11] it was 0.5 µM; in the test with Rattus norvegicus [12], 97.3 mg/dL. In addition, the Activity came to 50.2 mg/dL with Rattus norvegicus [13], 57.2 mg/dL with Rattus norvegicus [14] and 14.2 mg/dL in the test with Rattus norvegicus [15].
